Data reported in the supplement of paper PMC10307832.

Assays:
Experiment in all cases: relative viability (nuclei count vs DMSO), 5 days (fraction); higher = more cells survive
EMC-BAC-2 = tested on: EMC-BAC-2
Outline: (§1)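 For relative viability, nuclei counts in treated wells were divided by those in vehicle wells. Lung cancer cell lines had been pin-tool dosed in 1536-well plates the day after seeding and cultured for 5 days, then fixed and stained in one step (final 0.05% Triton X-100, 1% formaldehyde, 1 ug/ml Hoechst) and imaged at 4×. Doses were one drug alone or a fixed anchor-drug dose plus five library-drug doses (not always all listed) in √10 steps, and values are duplicate-plate medians.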

EPLC-272H = tested on: EPLC-272H
Outline: as §1

H3255 = tested on: H3255
Outline: as §1

HOP-62 = tested on: HOP-62
Outline: as §1

LCLC-97TM1 = tested on: LCLC-97TM1
Outline: as §1

LXF-289 = tested on: LXF-289
Outline: as §1

NCI-H1563 = tested on: NCI-H1563
Outline: as §1

NCI-H1734 = tested on: NCI-H1734
Outline: as §1

NCI-H1915 = tested on: NCI-H1915
Outline: as §1

NCI-H1993 = tested on: NCI-H1993
Outline: as §1

NCI-H2009 = tested on: NCI-H2009
Outline: as §1

NCI-H2023 = tested on: NCI-H2023
Outline: as §1

NCI-H2085 = tested on: NCI-H2085
Outline: as §1

NCI-H2126 = tested on: NCI-H2126
Outline: as §1

NCI-H2347 = tested on: NCI-H2347
Outline: as §1

NCI-H322M = tested on: NCI-H322M
Outline: as §1

NCI-H647 = tested on: NCI-H647
Outline: as §1

NCI-H661 = tested on: NCI-H661
Outline: as §1

NCI-H727 = tested on: NCI-H727
Outline: as §1

PC-14 = tested on: PC-14
Outline: as §1

SK-LU-1 = tested on: SK-LU-1
Outline: as §1

SW 1573 = tested on: SW 1573
Outline: as §1

Cc1sc2c(c1C)C(c1ccc(Cl)cc1)=N[C@@H](CC(=O)OC(C)(C)C)c1nnc(C)n1-2 [JQ1] + CCNC(=O)c1noc(-c2cc(C(C)C)c(O)cc2O)c1-c1ccc(CN2CCOCC2)cc1 [Luminespib] (partner 0.01 µM)
relative viability (EMC-BAC-2; first compound 0.04 µM): 1.16 | relative viability (EMC-BAC-2; first compound 0.1265 µM): 1.09 | relative viability (EMC-BAC-2; first compound 0.4 µM): 0.925 | relative viability (EMC-BAC-2; first compound 1.265 µM): 0.472 | relative viability (EMC-BAC-2; first compound 4 µM): 0.477 | relative viability (EPLC-272H; first compound 0.04 µM): 0.451 | relative viability (EPLC-272H; first compound 0.1265 µM): 0.332 | relative viability (EPLC-272H; first compound 0.4 µM): 0.238 | relative viability (EPLC-272H; first compound 1.265 µM): 0.179 | relative viability (EPLC-272H; first compound 4 µM): 0.189 | relative viability (H3255; first compound 0.04 µM): 0.904 | relative viability (H3255; first compound 0.1265 µM): 0.699 | relative viability (H3255; first compound 0.4 µM): 1.01 | relative viability (H3255; first compound 1.265 µM): 0.768 | relative viability (H3255; first compound 4 µM): 0.416 | relative viability (HOP-62; first compound 0.04 µM): 0.867 | relative viability (HOP-62; first compound 0.1265 µM): 0.824 | relative viability (HOP-62; first compound 0.4 µM): 0.477 | relative viability (HOP-62; first compound 1.265 µM): 0.309 | relative viability (HOP-62; first compound 4 µM): 0.128 | relative viability (LCLC-97TM1; first compound 0.04 µM): 0.81 | relative viability (LCLC-97TM1; first compound 0.1265 µM): 0.762 | relative viability (LCLC-97TM1; first compound 0.4 µM): 0.768 | relative viability (LCLC-97TM1; first compound 1.265 µM): 0.356 | relative viability (LCLC-97TM1; first compound 4 µM): 0.3 | relative viability (LXF-289; first compound 0.04 µM): 0.675 | relative viability (LXF-289; first compound 0.1265 µM): 0.601 | relative viability (LXF-289; first compound 0.4 µM): 0.597 | relative viability (LXF-289; first compound 1.265 µM): 0.495 | relative viability (LXF-289; first compound 4 µM): 0.541 | relative viability (NCI-H1563; first compound 0.04 µM): 0.565 | relative viability (NCI-H1563; first compound 0.1265 µM): 0.478 | relative viability (NCI-H1563; first compound 0.4 µM): 0.449 | relative viability (NCI-H1563; first compound 1.265 µM): 0.447 | relative viability (NCI-H1563; first compound 4 µM): 0.491 | relative viability (NCI-H1734; first compound 0.04 µM): 0.254 | relative viability (NCI-H1734; first compound 0.1265 µM): 0.165 | relative viability (NCI-H1734; first compound 0.4 µM): 0.158 | relative viability (NCI-H1734; first compound 1.265 µM): 0.124 | relative viability (NCI-H1734; first compound 4 µM): 0.173 | relative viability (NCI-H1915; first compound 0.04 µM): 0.56 | relative viability (NCI-H1915; first compound 0.1265 µM): 0.668 | relative viability (NCI-H1915; first compound 0.4 µM): 0.364 | relative viability (NCI-H1915; first compound 1.265 µM): 0.32 | relative viability (NCI-H1915; first compound 4 µM): 0.186 | relative viability (NCI-H1993; first compound 0.04 µM): 1.03 | relative viability (NCI-H1993; first compound 0.1265 µM): 0.789 | relative viability (NCI-H1993; first compound 0.4 µM): 0.821 | relative viability (NCI-H1993; first compound 1.265 µM): 0.637 | relative viability (NCI-H1993; first compound 4 µM): 0.889 | relative viability (NCI-H2009; first compound 0.04 µM): 0.971 | relative viability (NCI-H2009; first compound 0.1265 µM): 0.657 | relative viability (NCI-H2009; first compound 0.4 µM): 0.878 | relative viability (NCI-H2009; first compound 1.265 µM): 0.295 | relative viability (NCI-H2009; first compound 4 µM): 0.298 | relative viability (NCI-H2023; first compound 0.04 µM): 0.731 | relative viability (NCI-H2023; first compound 0.1265 µM): 0.67 | relative viability (NCI-H2023; first compound 0.4 µM): 0.358 | relative viability (NCI-H2023; first compound 1.265 µM): 0.107 | relative viability (NCI-H2023; first compound 4 µM): 0.146 | relative viability (NCI-H2085; first compound 0.04 µM): 0.387 | relative viability (NCI-H2085; first compound 0.1265 µM): 0.434 | relative viability (NCI-H2085; first compound 0.4 µM): 0.386 | relative viability (NCI-H2085; first compound 1.265 µM): 0.248 | relative viability (NCI-H2085; first compound 4 µM): 0.182 | relative viability (NCI-H2126; first compound 0.04 µM): 0.968 | relative viability (NCI-H2126; first compound 0.1265 µM): 0.767 | relative viability (NCI-H2126; first compound 0.4 µM): 0.977 | relative viability (NCI-H2126; first compound 1.265 µM): 0.864 | relative viability (NCI-H2126; first compound 4 µM): 0.659 | relative viability (NCI-H2347; first compound 0.04 µM): 0.45 | relative viability (NCI-H2347; first compound 0.1265 µM): 0.675 | relative viability (NCI-H2347; first compound 0.4 µM): 0.3 | relative viability (NCI-H2347; first compound 1.265 µM): 0.316 | relative viability (NCI-H2347; first compound 4 µM): 0.32 | relative viability (NCI-H322M; first compound 0.04 µM): 0.797 | relative viability (NCI-H322M; first compound 0.1265 µM): 0.879 | relative viability (NCI-H322M; first compound 0.4 µM): 0.599 | relative viability (NCI-H322M; first compound 1.265 µM): 0.383 | relative viability (NCI-H322M; first compound 4 µM): 0.395 | relative viability (NCI-H647; first compound 0.04 µM): 0.239 | relative viability (NCI-H647; first compound 0.1265 µM): 0.113 | relative viability (NCI-H647; first compound 0.4 µM): 0.134 | relative viability (NCI-H647; first compound 1.265 µM): 0.113 | relative viability (NCI-H647; first compound 4 µM): 0.073 | relative viability (NCI-H661; first compound 0.04 µM): 0.971 | relative viability (NCI-H661; first compound 0.1265 µM): 0.968 | relative viability (NCI-H661; first compound 0.4 µM): 1.01 | relative viability (NCI-H661; first compound 1.265 µM): 0.646 | relative viability (NCI-H661; first compound 4 µM): 0.593 | relative viability (NCI-H727; first compound 0.04 µM): 0.357 | relative viability (NCI-H727; first compound 0.1265 µM): 0.423 | relative viability (NCI-H727; first compound 0.4 µM): 0.45 | relative viability (NCI-H727; first compound 1.265 µM): 0.35 | relative viability (NCI-H727; first compound 4 µM): 0.346 | relative viability (PC-14; first compound 0.04 µM): 0.146 | relative viability (PC-14; first compound 0.1265 µM): 0.146 | relative viability (PC-14; first compound 0.4 µM): 0.0705 | relative viability (PC-14; first compound 1.265 µM): 0.0929 | relative viability (PC-14; first compound 4 µM): 0.0646 | relative viability (SK-LU-1; first compound 0.04 µM): 0.199 | relative viability (SK-LU-1; first compound 0.1265 µM): 0.177 | relative viability (SK-LU-1; first compound 0.4 µM): 0.171 | relative viability (SK-LU-1; first compound 1.265 µM): 0.152 | relative viability (SK-LU-1; first compound 4 µM): 0.175 | relative viability (SW 1573; first compound 0.04 µM): 0.249 | relative viability (SW 1573; first compound 0.1265 µM): 0.182 | relative viability (SW 1573; first compound 0.4 µM): 0.195 | relative viability (SW 1573; first compound 1.265 µM): 0.0871 | relative viability (SW 1573; first compound 4 µM): 0.0908
